The target in one data set is SNHG14. The settings on record: ASO, Human Neuronal Cell.
The next data set deals with DGAT2. As to conditions: ASO.

“And” between values parts separate entries of the source, which are not always exact repeats. Equal values may be shown once. After the bases stand the sugars from the 5' end (letter, count) and the backbone: PS all phosphorothioate, else s phosphorothioate and o phosphodiester by linkage. Methylation of C is not given here. e = 2'-O-(2-methoxyethyl) (MOE); l = locked nucleic acid (LNA); d = 2'-deoxy (DNA)

Sequence “TTTTTTTCTTACTATCTTCA (sugars lldldddddddddlddddll, PS)” showed a target mRNA inhibition in the data set with SNHG14 (7.5 µM) of 49%.

On to “TTATAGCCATTCTATCT (sugars ldddlddddddldllll, PS)”, for which, in the data set with SNHG14 (7.5 µM), the target mRNA inhibition came to 26%. Turning to “GAAAATCTCAACTACCATT (sugars llddldddddddlddddll, PS)”, in the data set with SNHG14 (7.5 µM), the target mRNA inhibition came to 52%. With “TAAAATTATTTATACACCA (sugars l3 d1 l2 d9 l4, PS)”, the target mRNA inhibition in the data set with SNHG14 (7.5 µM) was determined as 59%.

“TTTACACTTAATTATACTTC (sugars lllddldddddddllldlll, PS)” had a target mRNA inhibition in the data set with SNHG14 (7.5 µM) of 22%. In the data set with SNHG14 (7.5 µM), “AATTTTTTTCTTACTATCTT (sugars lldllldddddddddldlll, PS)” gave a target mRNA inhibition of 57%.

Turning to TACATTGACACCTAAT (sugars l4 d10 l2, PS), the target mRNA inhibition in the data set with SNHG14 (0.2 µM) was found to be 19%; with SNHG14 (1 µM), 17%. “ATCACTTGCTTGAGGTCAGG (sugars e5 d10 e5, PS)”: the target mRNA inhibition with DGAT2 (HepG2, 2.5 µM) is 70%; in the data set with DGAT2 (HepG2, 10 µM), 90%.

Take “CAGATACCTCCAGACATCAG (sugars e5 d10 e5, PS)”: the target mRNA inhibition with DGAT2 (HepG2, 0.12 µM) was 38%. Consider “ATCCATGTCATCAGCCACCC (sugars e5 d10 e5, PS)”, for which the target mRNA inhibition in the data set with DGAT2 (HepG2, 2.5 µM) is 61% and 63%; with DGAT2 (HepG2, 10 µM) it was 86% and 80%. “ATGGAGTGACAGGGCAGGAA (sugars e5 d10 e5, PS)”: the target mRNA inhibition with DGAT2 (HepG2, 0.12 µM) worked out at 59%. As to “GCACCATTTTCACAAGGAGA (sugars e5 d10 e5, PS)”, the target mRNA inhibition with DGAT2 (HepG2, 2.5 µM) was 79% and 72%; with DGAT2 (HepG2, 10 µM) it was 85% and 81%. The sequence “AATAACCCACAGACACCCAT (sugars e5 d10 e5, PS)” yielded a target mRNA inhibition with DGAT2 (HepG2, 0.12 µM) of 0%. With “AAGGACAGAGGTTCAACATC (sugars e5 d10 e5, PS)”, the target mRNA inhibition with DGAT2 (HepG2, 2.5 µM) was 7%; with DGAT2 (HepG2, 10 µM) it was 67%.

Consider “TCCGGACTGAATGTCACCTC (sugars e5 d10 e5, PS)”, for which the target mRNA inhibition in the data set with DGAT2 (HepG2, 2.5 µM) was 75%; with DGAT2 (HepG2, 10 µM), 85% and 90%. Take “CGCAGGACCCCGGAGTAGGC (sugars e2 d13 e5, PS)”: the target mRNA inhibition in the data set with DGAT2 (HepG2, 0.12 µM) came to 71%.

Regarding “AAGTGACAAAGTCTATCAGG (sugars e5 d10 e5, PS)”, the target mRNA inhibition came out at 61% with DGAT2 (HepG2, 2.5 µM) and 87% in the data set with DGAT2 (HepG2, 10 µM). The sequence “CTGCAGGCCACTCCCAGTAC (sugars e5 d10 e5, PS)” registered a target mRNA inhibition in the data set with DGAT2 (HepG2, 0.12 µM) of 40%.

Consider “CCATGTCAGAGAGGCTC (sugars e3 d10 e4, PS)”, for which the target mRNA inhibition with DGAT2 (HepG2, 2.5 µM) is 81% and 76%.

Regarding “TGGGAACTATCACACCACCT (sugars e5 d10 e5, PS)”, the target mRNA inhibition was 53% and 65% with DGAT2 (HepG2, 2.5 µM); 90% and 94% with DGAT2 (HepG2, 10 µM). “AGCTCATGAGAAGCTTAGAA (sugars e5 d10 e5, PS)”: the target mRNA inhibition is 62% with DGAT2 (HepG2, 2.5 µM) and 82% with DGAT2 (HepG2, 10 µM). On the same counts, the results for “AGAGGTTCAACATCCAATTT (sugars e5 d10 e5, PS)” are 0% and 86%. Turning to “TGGCCTGGATGGCAACCTAA (sugars e5 d10 e5, PS)”, the target mRNA inhibition stood at 46% in the data set with DGAT2 (HepG2, 2.5 µM) and 83% with DGAT2 (HepG2, 10 µM).

Regarding “TGCAGCCTACAAGAGCCTGT (sugars e5 d10 e5, PS)”, the target mRNA inhibition came to 54% with DGAT2 (HepG2, 2.5 µM) and 90% with DGAT2 (HepG2, 10 µM). The matching figures for “GGAGGAGTTCTCGAATATCC (sugars e5 d10 e5, PS)”: 84% and 74%. In the case of “GGAGCTCAGAGACTCAGCCG (sugars e5 d10 e5, PS)”, the target mRNA inhibition in the data set with DGAT2 (HepG2, 0.12 µM) was 73%. Turning to “AGCCAGGTAAGGCCGTATGC (sugars e5 d10 e5, PS)”, the target mRNA inhibition in the data set with DGAT2 (HepG2, 0.12 µM) stood at 70%. For “CTTATCCTTGAGGGTCTCAT (sugars e5 d10 e5, PS)”, the target mRNA inhibition was 56% with DGAT2 (HepG2, 2.5 µM) and 77% with DGAT2 (HepG2, 10 µM). “TTTCTTTTAAATAACCCACA (sugars e5 d10 e5, PS)”: in the data set with DGAT2 (HepG2, 0.12 µM), the target mRNA inhibition turned out to be 1%. Same read-out and setting: for “GCTGCATCCATGTCATCAGC (sugars e2 d16 e2, PS)” the value was 53%; for “GGCTCCGGTCAGCCTCGGCC (sugars e5 d10 e5, PS)”, 0%; for “TCAGCAGGTTGTGTGTCTTC (sugars e2 d13 e5, PS)”, 57%. “CTGCACTCTCTCTGCACACT (sugars e5 d10 e5, PS)”: the target mRNA inhibition in the data set with DGAT2 (HepG2, 2.5 µM) was 65% and 83%; with DGAT2 (HepG2, 10 µM), 81% and 90%. Take “GTTGGTCTTTTTGGCTGCCC (sugars e5 d10 e5, PS)”: the target mRNA inhibition was 77% and 67% in the data set with DGAT2 (HepG2, 2.5 µM); 88% and 86% with DGAT2 (HepG2, 10 µM). In the case of “GCTCAGATCACTCTGCACAG (sugars e5 d10 e5, PS)”, the target mRNA inhibition was 77% and 81% and 82% with DGAT2 (HepG2, 2.5 µM); 90% and 86% and 89% with DGAT2 (HepG2, 10 µM). “CCAGGTAAGGCCGTATGCCT (sugars e3 d14 e3, PS)” came in with a target mRNA inhibition with DGAT2 (HepG2, 0.12 µM) of 71%.

In the data set with DGAT2 (HepG2, 0.12 µM), “CAACAGGCTCTGGTTCCATG (sugars e5 d10 e5, PS)” yielded a target mRNA inhibition of 56%. On the same count and under the same terms, then “GCTGCATCCATGTCATCAGC (sugars e5 d10 e5, PS)”, with 43%; and “CAGGCAGCCTGAAGGACACT (sugars e5 d10 e5, PS)”, with 49%.

The values are drawn from the OligoGym collection.
